Earlier results in US12329856B2, “Crosslinked hyaluronic acid composition with local anesthetics” (BIOPOLIMERI S.R.L., priority 2021, dated 2025).

Conditions: tabulated in the state of the art

SMILES	pKa^T (thermodynamic pKa)
CCCNC(C)C(=O)Nc1c(C)csc1C(=O)OC (centres unmarked) [articaine]	7.6
Cc1cccc(C)c1NC(=O)C1CCCCN1C (centres unmarked) [mepivacaine]	7.8
